Measurements published in ChEMBL document CHEMBL1201862, “PubChem BioAssay data set” (2004).
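Exposure lasted 48 hours, with cells grown in 96-well plates and compounds tested at five concentrations. GI50: concentration for 50% inhibition of growth.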 Active and inactive are the calls of the source. No stated cut-off is given here; in the data, active = GI50 up to about 1.1 µM and inactive = higher.

What was measured:
Assay in all cases: NCI-60 cell line screen, 48 h
[1] = tested on: MDA-MB-435
[2] = tested on: CAKI-1
[3] = tested on: T47D
[4] = tested on: LOX IMVI
[5] = tested on: RXF 393
[6] = tested on: HCT-116
[7] = tested on: SF-295
[8] = tested on: HL-60
[9] = tested on: HOP-62
[10] = tested on: PC-3
[11] = tested on: SK-MEL-5
[12] = tested on: SK-MEL-28
[13] = tested on: OVCAR-8
[14] = tested on: EKVX
[15] = tested on: OVCAR-3
[16] = tested on: A498
[17] = tested on: K562
[18] = tested on: MDA-N
[19] = tested on: ACHN
[20] = tested on: NCI-H23

| Structure (SMILES) | GI50 [1] | GI50 [2] | GI50 [3] | GI50 [4] | GI50 [5] | GI50 [6] | GI50 [7] | GI50 [8] | GI50 [9] | GI50 [10] | GI50 [11] | GI50 [12] | GI50 [13] | GI50 [14] | GI50 [15] | GI50 [16] | GI50 [17] | GI50 [18] | GI50 [19] | GI50 [20] |
| --- | --- | --- | --- | --- | --- | --- | --- | --- | --- | --- | --- | --- | --- | --- | --- | --- | --- | --- | --- | --- |
| COc1ccc2c(CCNS(=O)(=O)c3ccccc3)c(C(C)=O)[nH]c2c1 | 12.3 µM (inactive) | 1 µM (active) | > 52.2 µM (inactive) | > 68.2 µM (inactive) | > 100 µM (inactive) | 45.3 µM (inactive) | 80.4 µM (inactive) | > 75.3 µM (inactive) | > 50.6 µM (inactive) | > 71.9 µM (inactive) | > 42.8 µM (inactive) | 63.8 µM (inactive) | > 69.3 µM (inactive) | > 100 µM (inactive) | > 100 µM (inactive) | > 62.7 µM (inactive) | > 74 µM (inactive) | > 71.3 µM (inactive) | 3.15 µM (inactive) | 8.3 µM (inactive) |
| O=C1c2[nH]c3ccccc3c2CCN2CCCCC12 (configuration not stated) | 16.7 µM (inactive) | 38.2 µM (inactive) | 25.7 µM (inactive) | 22.3 µM (inactive) | 24.9 µM (inactive) | 23.6 µM (inactive) | 25.1 µM (inactive) | 1.8 µM (inactive) | 29.3 µM (inactive) | 18.8 µM (inactive) | – | 37.4 µM (inactive) | 25.2 µM (inactive) | 23.4 µM (inactive) | 19.7 µM (inactive) | 29.6 µM (inactive) | 23.2 µM (inactive) | 19.1 µM (inactive) | 21.9 µM (inactive) | 21.8 µM (inactive) |
| COc1c(O)cc2ccnc3c2c1N(C)C=C3 | > 100 µM (inactive) | > 100 µM (inactive) | > 100 µM (inactive) | > 100 µM (inactive) | > 100 µM (inactive) | 67.3 µM (inactive) | 55 µM (inactive) | – | > 100 µM (inactive) | > 100 µM (inactive) | – | > 100 µM (inactive) | 95.1 µM (inactive) | > 100 µM (inactive) | > 100 µM (inactive) | > 100 µM (inactive) | > 100 µM (inactive) | > 100 µM (inactive) | 56.1 µM (inactive) | > 100 µM (inactive) |
